Laboratory results taken from patent US8603964B2, “Methods for modulating angiogenesis via dystrophin Dp71” (Institut National de la Sante et de la Recherche Medicale …, priority 2008, dated 2013).

Tests used:
Dp71 = conditions: cited from earlier work
[1] = tested on: aortic rings explants of wt mice (C57BL/6); experiment: Mouse aortic ring explant neovessel formation, wild-type mice; format: cell-based
Description: Thoracic aortas were removed from 2 months-old mice (C57BL/6 and Dp71-null mice) killed by CO2 asphyxiation and immediately transferred to a culture dish containing ice-cold endothelial cell basal medium (EGM-2; Cambrex Bioscience). The periaortic fibroadipose tissue was carefully removed with fine microdissecting forceps and scissors, paying special attention not to damage the aortic wall. One millimeters-long aortic rinaortic rings explants gs (15 per aorta from 12 mice) were sectioned and rinsed extensively in eight consecutive washes of EGM-2. The rings were then individually embedded in 48-well plates previously coated with 50 μl synthetic basement membrane (Matrigel; BD Bioscience) per well. After 1 hour, 500 μl EGM-2 was added to each well, and the cultures were incubated at 37° C. for 5 days. The culture medium was change each day. […] For all cell treatment, the final DMSO concentration was adjusted to 0.1%. The aortic rings were photographed on day 4 at ×2 magnification with a macroscope (Leica). The angiogenic response was determined by measuring the area of neovessel formation on computer (ImageJ or Photoshop software).

[2] = tested on: aortic rings explants of Dp71-null mice; experiment: Mouse aortic ring explant neovessel formation, Dp71-null mice; format: cell-based; parameters: dose or concentration left out as unconfirmed; conditions: same treatment with beta-nf, day 4
Description: The Dp71-null mice strain was obtained by replacing, via homologous recombination, most of the first and unique exon of Dp71 and of a small part of the Dp71 first intron with a sequence encoding a β-gal-neomycine-(beta-gal) resistance chimeric protein (β-geo). This enabled to monitor with great sensitivity the activity of the promoter using X-gal staining (Sarig et al., 1999).
Thoracic aortas were removed from 2 months-old mice (C57BL/6 and Dp71-null mice) killed by CO2 asphyxiation and immediately transferred to a culture dish containing ice-cold endothelial cell basal medium (EGM-2; Cambrex Bioscience). The periaortic fibroadipose tissue was carefully removed with fine microdissecting forceps and scissors, paying special attention not to damage the aortic wall. One millimeters-long aortic rinaortic rings explants gs (15 per aorta from 12 mice) were sectioned and rinsed extensively in eight consecutive washes of EGM-2. The rings were then individually embedded in 48-well plates previously coated with 50 μl synthetic basement membrane (Matrigel; BD Bioscience) per well. After 1 hour, 500 μl EGM-2 was added to each well, and the cultures were incubated at 37° C. for 5 days. The culture medium was change each day. […] The angiogenic response was determined by measuring the area of neovessel formation on computer (ImageJ or Photoshop software).

O=c1cc(-c2ccccc2)oc2ccc3ccccc3c12 [beta-nf, beta-naphtoflavone]
Dp71 expression (Dp71): inhibits Dp71 expression
inhibition of neovessel formation ([1]; explants of wt mice, beta-nf in 0.1% DMSO, area of neovessel formation on day 4, P<0.001): 50%
neoangiogenesis in aortic rings explants (in words) ([1]; wild mice strain expressing Dp71): inhibition of neoangiogenesis
effect on neovessel formation [2]: without effect
